What all share (type): biochemical
Experiment [1] has as its target T1, butyrylcholinesterase (BuChE) (Equus caballus, UniProt P81908).
T1 construct: gene BCHE
The experiment can be described thus: modified Ellman's assay, positive control, % inhibition at […] (IC50 not determined). A general note: In Ellman's method for cholinesterases, released thiocholine reacts with DTNB.

Experiment [2] has as its target T1, butyrylcholinesterase (BuChE). The experiment can be described thus: modified Ellman's assay, % inhibition at […] (IC50 not determined).
In experiment [3] the target is acetylcholinesterase (AChE) (Electrophorus electricus, UniProt O42275). Kind of experiment: modified Ellman's microplate assay ([…] inhibition at […]).

The text below walks through data of paper PMC6628235 (Marine Drugs, 2019).

Broadly, the inhibition is the share of the control response that was lost under treatment. Lower therefore signals a response near the control. As usually defined, the IC50 is the concentration that gives 50% inhibition. Low values mean greater potency, high ones weaker potency.

T1 sequence (P81908 whole entry): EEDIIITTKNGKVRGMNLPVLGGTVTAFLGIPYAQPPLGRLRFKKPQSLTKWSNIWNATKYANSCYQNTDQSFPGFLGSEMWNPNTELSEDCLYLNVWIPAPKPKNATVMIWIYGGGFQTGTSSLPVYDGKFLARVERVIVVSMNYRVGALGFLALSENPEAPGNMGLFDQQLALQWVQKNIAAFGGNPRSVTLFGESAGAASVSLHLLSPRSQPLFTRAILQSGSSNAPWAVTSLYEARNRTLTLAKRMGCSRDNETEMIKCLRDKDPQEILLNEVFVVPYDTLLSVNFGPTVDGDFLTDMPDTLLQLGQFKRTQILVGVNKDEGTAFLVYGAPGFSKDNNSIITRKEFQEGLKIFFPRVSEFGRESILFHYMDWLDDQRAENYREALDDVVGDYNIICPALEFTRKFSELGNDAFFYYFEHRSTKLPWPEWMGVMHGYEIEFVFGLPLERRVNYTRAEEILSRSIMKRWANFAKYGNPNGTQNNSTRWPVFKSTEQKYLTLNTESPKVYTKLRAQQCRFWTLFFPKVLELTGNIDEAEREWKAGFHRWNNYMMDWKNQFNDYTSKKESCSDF
Sequence of acetylcholinesterase (AChE) (O42275 24-633): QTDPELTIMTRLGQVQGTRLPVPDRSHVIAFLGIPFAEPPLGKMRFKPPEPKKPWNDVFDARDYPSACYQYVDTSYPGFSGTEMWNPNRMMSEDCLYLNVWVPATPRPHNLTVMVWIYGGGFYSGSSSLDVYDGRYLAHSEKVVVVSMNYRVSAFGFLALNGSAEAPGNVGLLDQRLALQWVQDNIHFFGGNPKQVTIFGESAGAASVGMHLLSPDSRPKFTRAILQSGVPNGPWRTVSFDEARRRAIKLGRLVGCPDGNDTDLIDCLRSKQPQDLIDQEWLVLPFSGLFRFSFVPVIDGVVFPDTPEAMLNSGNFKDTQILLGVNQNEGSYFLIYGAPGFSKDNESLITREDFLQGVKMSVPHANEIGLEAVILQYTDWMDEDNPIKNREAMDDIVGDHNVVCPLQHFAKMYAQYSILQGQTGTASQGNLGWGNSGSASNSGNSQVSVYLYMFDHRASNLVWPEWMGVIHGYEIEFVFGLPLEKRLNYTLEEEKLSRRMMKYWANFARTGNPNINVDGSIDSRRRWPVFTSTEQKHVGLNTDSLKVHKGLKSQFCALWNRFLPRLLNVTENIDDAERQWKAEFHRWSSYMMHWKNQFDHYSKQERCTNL

With `COc1ccc2c3c1O[C@H]1C[C@@H](O)C=C[C@@]31CCN(C)C2` [galantamine], the “% inhibition at 6.25 μM” value in experiment [1] was 10.34 ± 0.21.
For `CC1=C[C@H](O)[C@]2(CC1=O)C[C@H](O)C(C)(C)O2` [compound 1, (3S, 5R, 10S)-3,10-dihydroxy-2,2,8-trimethyl-1-oxospiro[4.5]dec-8-en-7-one], in experiment [2], the inhibition at 6.25 µM turned out to be 30.71 ± 0.21%.
In experiment [3], `Cc1cc2nc3[nH]c(=O)[nH]c(=O)c3nc2cc1C` [compound 3, lumichrome] came in with an IC50 of 12.24 ± 0.12 µM.
